According to PubChem BioAssay AID256 (DTP/NCI, 2004):
Several values for one entry are separate records, joined by “and”; a condition that tells them apart may be missing. Equal entries are not always repeated. Inconclusive results and toxic doses are left out. Rule for the calls: active = survival T/C of 150% or more; inactive = T/C below 125% in these data.

Tested on: CD2F1 mice, L1210 leukemia ip, survival T/C
Assay: NCI In Vivo Anticancer Drug Screen. Data for tumor model L1210 Leukemia (intraperitoneal) in CD2F1 (CDF1) mice
Conditions: higher = longer survival
Outline: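 Activity against a transplanted murine tumor was judged by comparing the compound group with a vehicle group. The outcome in the treated animals was divided by that in the controls.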

[1] = endpoint: mean survival time, dose: 100.0 mg/kg/injection, schedule: Q04DX002 (ip), vehicle: saline with Tween-80
[2] = endpoint: mean survival time, dose: 200.0 mg/kg/injection, schedule: Q04DX002 (ip), vehicle: saline with Tween-80
[3] = endpoint: mean survival time, dose: 400.0 mg/kg/injection, schedule: Q04DX002 (ip), vehicle: saline with Tween-80
[4] = endpoint: mean survival time, dose: 50.0 mg/kg/injection, schedule: Q01DX009 (ip), vehicle: saline
[5] = endpoint: mean survival time, dose: 100.0 mg/kg/injection, schedule: Q01DX009 (ip), vehicle: saline
[6] = endpoint: mean survival time, dose: 100.0 mg/kg/injection, schedule: Q01DX009 (ip), vehicle: saline with Tween-80
[7] = endpoint: mean survival time, dose: 100.0 mg/kg/injection, schedule: Q04DX003 (ip), vehicle: saline with Tween-80
[8] = endpoint: mean survival time, dose: 200.0 mg/kg/injection, schedule: Q01DX009 (ip), vehicle: saline with Tween-80
[9] = endpoint: mean survival time, dose: 200.0 mg/kg/injection, schedule: Q04DX003 (ip), vehicle: saline with Tween-80
[10] = endpoint: mean survival time, dose: 400.0 mg/kg/injection, schedule: Q04DX003 (ip), vehicle: saline with Tween-80
[11] = endpoint: mean survival time, dose: 100.0 mg/kg/injection, schedule: Q01DX001 (ip), vehicle: saline with Tween-80
[12] = endpoint: mean survival time, dose: 200.0 mg/kg/injection, schedule: Q01DX001 (ip), vehicle: saline with Tween-80
[13] = endpoint: mean survival time, dose: 400.0 mg/kg/injection, schedule: Q01DX001 (ip), vehicle: saline with Tween-80
[14] = endpoint: median survival time, dose: 50.0 mg/kg/injection, schedule: Q01DX005 (ip), vehicle: saline with Tween-80
[15] = endpoint: median survival time, dose: 100.0 mg/kg/injection, schedule: Q01DX005 (ip), vehicle: saline with Tween-80
[16] = endpoint: median survival time, dose: 200.0 mg/kg/injection, schedule: Q01DX005 (ip), vehicle: saline with Tween-80
[17] = endpoint: mean survival time, dose: 400.0 mg/kg/injection, schedule: Q01DX009 (ip), vehicle: saline with Tween-80

Measured: T/C

CCC(CCc1ccc(OC)c(OC)c1)C(=O)O (stereo not given)
inactive: [1] 109 % of control | [2] 102 % of control | [3] 98 % of control

CN=Cc1ccccc1
inactive: endpoint: mean survival time, dose: 25.0 mg/kg/injection, schedule: Q01DX009 (ip), vehicle: saline 97 % of control | [4] 97 % of control | [5] 100 % of control

N#C/C=C1\NC(=O)CS1
inactive: [6] 114 % of control | [7] 96 % of control | [8] 101 % of control | [9] 100 % of control | [10] 102 % of control

Cc1cc(CSc2ssc(=S)c2-c2ccccc2)c(CSc2ssc(=S)c2-c2ccccc2)cc1C
inactive: [11] 98 % of control | [12] 98 % of control | [13] 97 % of control

c1c(NC2=NCCO2)cc2c3c1CCCN3CCC2
inactive: [7] 92 % of control | [9] 97 % of control

CC(=O)OC1C(N=[N+]=[N-])C(OC(C)=O)C(OC(C)=O)C(OC(C)=O)C1OC(C)=O (stereo not given)
inactive: endpoint: mean survival time, dose: 100.0 mg/kg/injection, schedule: Q01DX001 (ip), vehicle: Klucel (hydroxypropylcellulose) (HPC) 93 % of control | endpoint: mean survival time, dose: 200.0 mg/kg/injection, schedule: Q01DX001 (ip), vehicle: Klucel (hydroxypropylcellulose) (HPC) 95 % of control | endpoint: mean survival time, dose: 400.0 mg/kg/injection, schedule: Q01DX001 (ip), vehicle: Klucel (hydroxypropylcellulose) (HPC) 103 % of control

C/C(=N\NC(N)=O)c1cccc(/C(C)=N/NC(N)=O)n1
inactive: endpoint: mean survival time, dose: 6.25 mg/kg/injection, schedule: Q01DX009 (ip), vehicle: saline with Tween-80 102 % of control and 103 % of control | endpoint: mean survival time, dose: 12.5 mg/kg/injection, schedule: Q01DX009 (ip), vehicle: saline with Tween-80 103 % of control and 104 % of control | endpoint: mean survival time, dose: 25.0 mg/kg/injection, schedule: Q01DX009 (ip), vehicle: saline with Tween-80 100 % of control and 101 % of control | endpoint: mean survival time, dose: 50.0 mg/kg/injection, schedule: Q01DX009 (ip), vehicle: saline with Tween-80 98 % of control and 103 % of control | [6] 92 % of control and 102 % of control | [8] 91 % of control and 110 % of control

OC1C(COCc2ccccc2)OC(n2cccc2)C1O (stereo not given)
inactive: endpoint: median survival time, dose: 8.75 mg/kg/injection, schedule: Q01DX005 (ip), vehicle: distilled water + Tween-80 98 % of control | endpoint: median survival time, dose: 17.5 mg/kg/injection, schedule: Q01DX005 (ip), vehicle: distilled water + Tween-80 101 % of control | endpoint: median survival time, dose: 35.0 mg/kg/injection, schedule: Q01DX005 (ip), vehicle: distilled water + Tween-80 104 % of control | endpoint: median survival time, dose: 70.0 mg/kg/injection, schedule: Q01DX005 (ip), vehicle: distilled water + Tween-80 112 % of control | endpoint: median survival time, dose: 140.0 mg/kg/injection, schedule: Q01DX005 (ip), vehicle: distilled water + Tween-80 98 % of control

O=C1CSC(c2cccs2)N1c1nncs1 (stereo not given)
inactive: endpoint: median survival time, dose: 25.0 mg/kg/injection, schedule: Q01DX005 (ip), vehicle: Klucel (hydroxypropylcellulose) (HPC) 94 % of control | endpoint: median survival time, dose: 50.0 mg/kg/injection, schedule: Q01DX005 (ip), vehicle: Klucel (hydroxypropylcellulose) (HPC) 102 % of control and 104 % of control and 110 % of control | endpoint: median survival time, dose: 100.0 mg/kg/injection, schedule: Q01DX005 (ip), vehicle: Klucel (hydroxypropylcellulose) (HPC) 94 % of control and 96 % of control and 103 % of control | endpoint: median survival time, dose: 200.0 mg/kg/injection, schedule: Q01DX005 (ip), vehicle: Klucel (hydroxypropylcellulose) (HPC) 116 % of control and 94 % of control (2×) | endpoint: median survival time, dose: 400.0 mg/kg/injection, schedule: Q01DX005 (ip), vehicle: Klucel (hydroxypropylcellulose) (HPC) 107 % of control | endpoint: median survival time, dose: 800.0 mg/kg/injection, schedule: Q01DX005 (ip), vehicle: Klucel (hydroxypropylcellulose) (HPC) 115 % of control

CCNc1ncc2ccccc2c1-c1ccc(NCCCl)cc1
inactive: endpoint: mean survival time, dose: 25.0 mg/kg/injection, schedule: Q04DX003 (ip), vehicle: other 98 % of control | endpoint: mean survival time, dose: 50.0 mg/kg/injection, schedule: Q04DX003 (ip), vehicle: other 95 % of control | endpoint: mean survival time, dose: 100.0 mg/kg/injection, schedule: Q04DX003 (ip), vehicle: other 87 % of control | endpoint: mean survival time, dose: 200.0 mg/kg/injection, schedule: Q04DX003 (ip), vehicle: other 105 % of control | endpoint: mean survival time, dose: 400.0 mg/kg/injection, schedule: Q04DX003 (ip), vehicle: other 90 % of control

O=C(Nc1cc(Cl)ccc1C(=O)O)c1cccc(C[n+]2ccccc2)c1
inactive: [14] 105 % of control | [15] 98 % of control | [16] 95 % of control | endpoint: median survival time, dose: 400.0 mg/kg/injection, schedule: Q01DX005 (ip), vehicle: saline with Tween-80 91 % of control

CCCCCCCC(=O)Nc1ccc(C)cc1C
inactive: [6] 91 % of control | [8] 98 % of control | [17] 91 % of control

Nc1c(-c2nccc(=O)[nH]2)ncn1C1OC(CO)C(O)C1O (stereo not given)
inactive: endpoint: median survival time, dose: 12.5 mg/kg/injection, schedule: Q01DX005 (ip), vehicle: saline with Tween-80 102 % of control | endpoint: median survival time, dose: 25.0 mg/kg/injection, schedule: Q01DX005 (ip), vehicle: saline with Tween-80 96 % of control | [14] 103 % of control | [15] 98 % of control | [16] 102 % of control

CC1CC1Cc1ccccc1 (stereo not given)
inactive: [11] 86 % of control

CCO/C=N/NC(=O)CNC(=O)C=[N+]=[N-]
inactive: [7] 108 % of control | [9] 103 % of control | [10] 108 % of control

Nc1c(-c2ncc[nH]2)ncn1C1OC(CO)C(O)C1O (stereo not given)
inactive: [1] 109 % of control | [2] 97 % of control | [3] 102 % of control

CCC1CN2CCC1CC2C(O)c1cc[n+]([O-])c2ccc(OC)cc12 (stereo not given)
inactive: endpoint: mean survival time, dose: 100.0 mg/kg/injection, schedule: Q04DX003 (ip), vehicle: Klucel (hydroxypropylcellulose) (HPC) 98 % of control | endpoint: mean survival time, dose: 200.0 mg/kg/injection, schedule: Q04DX003 (ip), vehicle: Klucel (hydroxypropylcellulose) (HPC) 102 % of control | endpoint: mean survival time, dose: 400.0 mg/kg/injection, schedule: Q04DX003 (ip), vehicle: Klucel (hydroxypropylcellulose) (HPC) 102 % of control

CCOC(=O)CC1(C)C(=O)NC(=O)N1C(C)=O (stereo not given)
inactive: [11] 105 % of control | [6] 103 % of control | [12] 97 % of control | [8] 103 % of control | [13] 94 % of control | [17] 116 % of control

C#CCC(O)CC (stereo not given)
inactive: [4] 103 % of control | [5] 107 % of control | endpoint: mean survival time, dose: 200.0 mg/kg/injection, schedule: Q01DX009 (ip), vehicle: saline 103 % of control

CCN(C(=O)NC)c1cc(C)ccc1OC
inactive: [6] 87 % of control | [8] 87 % of control | [17] 98 % of control

CN1CC(=O)N=C1N.CN1CC(=O)N=C1N.[Cl][Pt][Cl]
inactive: endpoint: mean survival time, dose: 3.13 mg/kg/injection, schedule: Q04DX003 (ip), vehicle: water 102 % of control | endpoint: mean survival time, dose: 6.25 mg/kg/injection, schedule: Q04DX003 (ip), vehicle: water 96 % of control | endpoint: mean survival time, dose: 12.5 mg/kg/injection, schedule: Q04DX003 (ip), vehicle: water 96 % of control | endpoint: mean survival time, dose: 25.0 mg/kg/injection, schedule: Q04DX003 (ip), vehicle: water 100 % of control | endpoint: mean survival time, dose: 50.0 mg/kg/injection, schedule: Q04DX003 (ip), vehicle: water 102 % of control | endpoint: mean survival time, dose: 100.0 mg/kg/injection, schedule: Q04DX003 (ip), vehicle: water 92 % of control

NC(=O)c1nc(Br)n(C2OC(CO)C(O)C2O)c1N (stereo not given)
inactive: endpoint: median survival time, dose: 44.0 mg/kg/injection, schedule: Q01DX005 (ip), vehicle: saline 104 % of control | endpoint: median survival time, dose: 88.0 mg/kg/injection, schedule: Q01DX005 (ip), vehicle: saline 101 % of control | endpoint: median survival time, dose: 175.9 mg/kg/injection, schedule: Q01DX005 (ip), vehicle: saline 102 % of control

CC1=C(C)C(=O)C(CC2=C(C)C(=O)C(C)=C(C)C2=O)=C(C)C1=O
inactive: [1] 102 % of control | [2] 91 % of control | [3] 109 % of control

S=c1nc[nH]c2c1ncn2CN1CCCCC1
inactive: [8] 116 % of control

NC(=O)c1[nH]cnc1/N=N/N(CCO)Cc1ccccc1
inactive: [7] 98 % of control | [9] 95 % of control | [10] 95 % of control

O=S1(=O)CC(Cl)(Br)C1 (tested in a mixture with another compound)
inactive: endpoint: mean survival time, dose: 50.0 mg/kg/injection, schedule: Q01DX009 (ip), vehicle: Klucel (hydroxypropylcellulose) (HPC) 92 % of control | endpoint: mean survival time, dose: 100.0 mg/kg/injection, schedule: Q01DX009 (ip), vehicle: Klucel (hydroxypropylcellulose) (HPC) 107 % of control | endpoint: mean survival time, dose: 200.0 mg/kg/injection, schedule: Q01DX009 (ip), vehicle: Klucel (hydroxypropylcellulose) (HPC) 103 % of control

C=CC1CC(=O)N1Cc1ccccc1 (stereo not given)
inactive: [7] 97 % of control | [9] 92 % of control | [10] 92 % of control

Cc1csc2ncnc(N)c12
inactive: [11] 100 % of control | [12] 92 % of control | [13] 101 % of control
